Experimental data taken from EP4667458A1 (Kanaph Therapeutics Inc., priority 2023, dated 2024).

target: T1, SOS1 (Homo sapiens, UniProt Q07889); test: SOS-catalyzed nucleotide exchange assay (HTRF, SOS1-mediated GTP loading of KRAS G12D); assay type: biochemical; details: GST-KRAS G12D, HIS-SOS1cat, EDA-GTP-DY-647P1; compound 128 pM to 10 µM; read-out: SOS-catalyzed nucleotide exchange assay (IC50 range, Grade)
T1 construct: adding equal amounts of HIS-SOS1cat (160 nM; Cytoskeleton, US); His; purchased Cytoskeleton, US
T1 sequence (Q07889 564-1049 limits assumed): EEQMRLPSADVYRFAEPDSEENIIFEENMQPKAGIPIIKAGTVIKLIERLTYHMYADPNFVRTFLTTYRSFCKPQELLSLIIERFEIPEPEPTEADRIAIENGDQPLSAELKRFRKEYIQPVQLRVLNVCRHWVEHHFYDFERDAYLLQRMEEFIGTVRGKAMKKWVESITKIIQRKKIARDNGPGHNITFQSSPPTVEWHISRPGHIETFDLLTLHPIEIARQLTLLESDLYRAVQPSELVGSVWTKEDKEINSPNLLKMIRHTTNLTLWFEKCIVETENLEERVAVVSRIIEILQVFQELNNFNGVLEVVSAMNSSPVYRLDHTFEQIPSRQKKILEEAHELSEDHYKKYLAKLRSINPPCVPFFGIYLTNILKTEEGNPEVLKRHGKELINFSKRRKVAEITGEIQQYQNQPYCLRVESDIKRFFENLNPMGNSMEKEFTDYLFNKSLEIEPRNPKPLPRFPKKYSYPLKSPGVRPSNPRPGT
Experimental: SOS1 activity was measured by SOS1-mediated GTP loading quantification of KRAS^G12D. GTP-loaded KRAS^G12D was detected by HTRF (Homogeneous Time Resolved Fluorescence) using anti-GST terbium (Cisbio, France) as a donor and a fluorescence GTP analogue (EDA-GTP-DY-647P1, [DY-647P1-labeled 2'/3'-O-(2-aminoethyl-carbamoyl)guanosine-5'-triphosphate (Jena bioscience, Germany)]) as an acceptor.
Assay buffer was composed of 10 mM HEPES pH 7.4, 150 mM NaCl, 5 mM MgCl2, 1 mM DTT, 0.05% BSA Fraction V pH 7.0 (Sigma) and 0.0025% (v/v) Igepal (Sigma). KRAS^G12D working solution was prepared by adding equal amounts of GST-KRAS^G12D (100 nM) and anti-GST-terbium (2 nM; Cisbio, France) to the assay buffer and incubating on ice for 10 minutes. SOS1cat working solution was prepared by adding equal amounts of HIS-SOS1cat (160 nM; Cytoskeleton, US) and EDA-GTP-DY-647P1 (200 nM; Jena bioscience, Germany) to the assay buffer. Control solution was prepared by adding equal volumes of EDA-GTP-DY-647P1 and the assay buffer for normalization control to exclude GEF-independent GTP loading and background signals. In order to induce a reaction, 5 µL of the SOS1cat working solution or the control solution was injected into each well. 5 µL of a compound having various concentrations from 128 pM to 10 µM was added to wells containing the SOS1cat working solution and incubated at room temperature for 10 minutes to bind to SOS1.
10 µL of the KRAS^G12D solution was added to each well and incubated for 30 minutes at room temperature while shaking. HTRF was measured using a Thermo Varioskan (excitation 334 nm, emission 665 nm). The IC50 of each inhibitor was analyzed using Graphad Prism.
The SOS1 inhibitory activity of the Example compounds measured by the above method was evaluated based on the following criteria, and the results are shown in Table 29.

Compound | IC50
C[C@@H](NC(=O)c1ccc(=O)n(-c2cccc(NS(C)(=O)=O)c2)n1)c1cccc(C(F)(F)CO)c1 [Example 39, (R)-N-(1-(3-(1,1-difluoro-2-hydroxyethyl)phenyl)ethyl)-1-(3-(methylsulfonamido)phenyl)-6-oxo-1,6-dihydropyridazine-3-carboxamide] | < 1000 nM
COc1cccc(-n2nc(C(=O)N[C@H](C)c3cc(N)cc(C(F)(F)F)c3)ccc2=O)c1 [Example 40, N-[(1R)-1-[3-amino-5-(trifluoromethyl)phenyl]ethyl]-1-(3-methoxyphenyl)-6-oxo-pyridazine-3-carboxamide] | < 1000 nM
Cc1ccccc1-n1nc(C(=O)N[C@H](C)c2cc(N)cc(C(F)(F)F)c2)ccc1=O [Example 41, N-[(1R)-1-[3-amino-5-(trifluoromethyl)phenyl]ethyl]-1-(o-tolyl)-6-oxo-pyridazine-3-carboxamide] | < 1000 nM
COc1ccc(-n2nc(C(=O)N[C@H](C)c3cccc(C(F)(F)CO)c3F)ccc2=O)cc1 [Example 42, (R)-N-(1-(3-(1,1-difluoro-2-hydroxyethyl)-2-fluorophenyl)ethyl)-1-(4-methoxyphenyl)-6-oxo-1,6-dihydropyridazine-3-carboxamide] | < 1000 nM
C[C@@H](NC(=O)c1ccc(=O)n(-c2cccc(C(=O)N(C)C)c2)n1)c1cccc(C(F)(F)CO)c1F [Example 43, N-[(1R)-1-[3-(1,1-difluoro-2-hydroxy-ethyl)-2-fluorophenyl]ethyl]-1-[3-(dimethylcarbamoyl)phenyl]-6-oxo-pyridazine-3-carboxamide] | < 1000 nM
C[C@@H](NC(=O)c1ccc(=O)n(-c2ccccc2OC(F)(F)F)n1)c1cccc(C(F)(F)CO)c1F [Example 44, (R)-N-(1-(3-(1,1-difluoro-2-hydroxyethyl)-2-fluorophenyl)ethyl)-6-oxo-1-(2-(trifluoromethoxy)phenyl)-1,6-dihydropyridazine-3-carboxamide] | < 1000 nM
C[C@@H](NC(=O)c1ccc(=O)n(-c2ccccc2OC(F)(F)F)n1)c1cc(N)cc(C(F)(F)F)c1 [Example 45, N-[(1R)-1-[3-amino-5-(trifluoromethyl)phenyl]ethyl]-6-oxo-1-[2-(trifluoromethoxy)phenyl]pyridazine-3-carboxamide] | < 1000 nM
C[C@@H](NC(=O)c1ccc(=O)n(-c2ccccc2F)n1)c1cc(N)cc(C(F)(F)F)c1 [Example 46, (R)-N-(1-(3-amino-5-(trifluoromethyl)phenyl)ethyl)-1-(2-fluorophenyl)-6-oxo-1,6-dihydropyridazine-3-carboxamide] | < 1000 nM
C[C@@H](NC(=O)c1ccc(=O)n(-c2ccccc2O)n1)c1cc(N)cc(C(F)(F)F)c1 [Example 47, N-[(1R)-1-[3-amino-5-(trifluoromethyl)phenyl]ethyl]-1-(2-hydroxyphenyl)-6-oxo-pyridazine-3-carboxamide] | < 1000 nM
C[C@@H](NC(=O)c1cc(O)c(=O)n(-c2ccccc2)n1)c1cc(N)cc(C(F)(F)F)c1 [Example 48, (R)-N-(1-(3-amino-5-(trifluoromethyl)phenyl)ethyl)-5-hydroxy-6-oxo-1-phenyl-1,6-dihydropyridazine-3-carboxamide] | 1000 to 10000 nM
Cc1cc(=O)n(-c2ccccc2)nc1C(=O)N[C@H](C)c1cc(N)cc(C(F)(F)F)c1 [Example 49, N-[(1R)-1-[3-amino-5-(trifluoromethyl)phenyl]ethyl]-4-methyl-6-oxo-1-phenyl-pyridazine-3-carboxamide] | 1000 to 10000 nM
C#Cc1cc(=O)n(-c2ccccc2)nc1C(=O)N[C@H](C)c1cc(N)cc(C(F)(F)F)c1 [Example 50, N-[(1R)-1-[3-amino-5-(trifluoromethyl)phenyl]ethyl]-4-ethynyl-6-oxo-1-phenyl-pyridazine-3-carboxamide] | 1000 to 10000 nM
C[C@@H](NC(=O)c1ccc(=O)n(-c2ccccc2N)n1)c1cc(N)cc(C(F)(F)F)c1 [Example 51, (R)-N-(1-(3-amino-5-(trifluoromethyl)phenyl)ethyl)-1-(2-aminophenyl)-6-oxo-1,6-dihydropyridazine-3-carboxamide] | < 1000 nM
CC(=O)Nc1ccccc1-n1nc(C(=O)N[C@H](C)c2cc(N)cc(C(F)(F)F)c2)ccc1=O [Example 52, (R)-1-(2-acetamidophenyl)-N-(1-(3-amino-5-(trifluoromethyl)phenyl)ethyl)-6-oxo-1,6-dihydropyridazine-3-carboxamide] | 1000 to 10000 nM
CC(=O)Nc1cccc(-n2nc(C(=O)N[C@H](C)c3cccc(C(F)(F)CO)c3)ccc2=O)c1 [Example 53, 1-(3-acetamidophenyl)-N-[(1R)-1-[3-(1,1-difluoro-2-hydroxyethyl)phenyl]ethyl]-6-oxo-pyridazine-3-carboxamide] | 1000 to 10000 nM
C[C@@H](NC(=O)c1cc(C2CC2)c(=O)n(-c2ccccc2)n1)c1cc(N)cc(C(F)(F)F)c1 [Example 54, (R)-N-(1-(3-amino-5-(trifluoromethyl)phenyl)ethyl)-5-cyclopropyl-6-oxo-1-phenyl-1,6-dihydropyridazine-3-carboxamide] | < 1000 nM
C[C@@H](NC(=O)c1nn(-c2ccccc2)c(=O)cc1C1CC1)c1cc(N)cc(C(F)(F)F)c1 [Example 55, (R)-N-(1-(3-amino-5-(trifluoromethyl)phenyl)ethyl)-4-cyclopropyl-6-oxo-1-phenyl-1,6-dihydropyridazine-3-carboxamide] | < 1000 nM
C[C@@H](NC(=O)c1cc(C#N)c(=O)n(-c2ccccc2)n1)c1cc(N)cc(C(F)(F)F)c1 [Example 56, N-[(1R)-1-[3-amino-5-(trifluoromethyl)phenyl]ethyl]-5-cyano-6-oxo-1-phenyl-pyridazine-3-carboxamide] | < 1000 nM
C[C@@H](NC(=O)c1ccc(=O)n(-c2ccccc2)n1)c1cccc(C(F)(F)CO)c1 [Example 57, N-[(1R)-1-[3-(1,1-difluoro-2-hydroxy-ethyl)phenyl]ethyl]-6-oxo-1-phenyl-pyridazine-3-carboxamide] | < 1000 nM
C[C@@H](NC(=O)c1ccc(=O)n(-c2cccc(S(C)(=O)=O)c2)n1)c1cccc(C(F)(F)CO)c1 [Example 58, N-[(1R)-1-[3-(1,1-difluoro-2-hydroxy-ethyl)phenyl]ethyl]-1-(3-methylsulfonylphenyl)-6-oxo-pyridazine-3-carboxamide] | < 1000 nM
C[C@@H](NC(=O)c1ccc(=O)n(-c2ccccc2)n1)c1cccc(C(F)(F)CO)c1F [Example 59, N-[(1R)-1-[3-(1,1-difluoro-2-hydroxy-ethyl)-2-fluoro-phenyl]ethyl]-6-oxo-1-phenyl-pyridazine-3-carboxamide] | < 1000 nM
CCOc1cccc([C@@H](C)NC(=O)c2ccc(=O)n(-c3ccccc3)n2)c1 [Example 60, (R)-N-(1-(3-ethoxyphenyl)ethyl)-6-oxo-1-phenyl-1,6-dihydropyridazine-3-carboxamide] | > 10000 nM
C[C@@H](NC(=O)c1ccc(=O)n(-c2ccccc2)n1)c1cccc([Si](C)(C)C)c1 [Example 61, 6-oxo-1-phenyl-N-[(1R)-1-(3-trimethylsilylphenyl)ethyl]pyridazine-3-carboxamide] | 1000 to 10000 nM
C[C@@H](NC(=O)c1ccc(=O)n(-c2ccccc2)c1)c1cc(N)cc(C(F)(F)F)c1 [Example 62, N-[(1R)-1-[3-amino-5-(trifluoromethyl)phenyl]ethyl]-6-oxo-1-phenylpyridine-3-carboxamide] | < 1000 nM
C[C@@H](NC(=O)c1cn(-c2ccccc2)c(=O)cn1)c1cc(N)cc(C(F)(F)F)c1 [Example 63, N-[(1R)-1-[3-amino-5-(trifluoromethyl)phenyl]ethyl]-5-oxo-4-phenyl-pyrazine-2-carboxamide] | 1000 to 10000 nM
C[C@@H](NC(=O)c1ccc(=O)n(C2CC2)n1)c1cc(N)cc(C(F)(F)F)c1 [Example 64, N-[(1R)-1-[3-amino-5-(trifluoromethyl)phenyl]ethyl]-1-cyclopropyl-6-oxo-1,6-dihydropyridazine-3-carboxamide] | 1000 to 10000 nM
